From paper PMC5510868 (PLoS ONE, 2017)
“Also recorded” adds a separate entry of the source.

Experiment: Serum metabolite concentrations and parent compound/metabolite ratios at baseline and in the third trimester (TDM, linear mixed model)
Conditions: analyses with metabolite data (Table 3)
Protocol: Quantification of the drug concentrations was performed with liquid chromatography-mass spectrometry/tandem mass spectrometry (LC-MS/LC-MS/MS). […] In brief, the drugs were extracted from serum by liquid-liquid extraction, using a mixture of hexane, acetonitrile and/or butanol, or dichloromethane and isopropanol. Thereafter, the analytes were separated on C18 columns using methanol, acetonitrile, formic acid or ammonium acetate as mobile phases, and quantified on LC-MS or LC-MS-MS systems. Calibration curves were constructed for each assay with drug-free human serum by the addition of varying concentrations of the antidepressants and their respective metabolites.
Serum concentrations in ng/mL were divided by the daily dose used by the person at the time of sampling, providing a serum concentration/dose ratio, and then multiplied by the defined daily dose (DDD), which is the assumed average maintenance dose per day for that drug used for its main indication in adults [28]. […] All concentrations presented and discussed in this article, including tables and figures, are dose-adjusted to the DDD of the drug.
For drugs where both the parent drug and the metabolite were measured, parent drug/metabolite concentration ratios during pregnancy were compared to baseline values as described above; ratios were loge-transformed and fitted into a linear mixed model, estimating the baseline ratios and the effect of each gestational week.
All model parameters, including variance components, were estimated by the method of maximum likelihood using STATA 13 command “mixed”. […] P values less than 0.05 were considered statistically significant.

Row | Compound | Change of parent compound or metabolite serum concentration in pregnancy (in words)
1 | CN[C@H]1CC[C@@H](c2ccc(Cl)c(Cl)c2)c2ccccc21 [Sertraline] | increasing levels
2 | CN(C)CC(c1ccc(O)cc1)C1(O)CCCCC1 (centres unmarked) [O-desmethylvenlafaxine] | did not change
3 | COc1ccc(C(CN(C)C)C2(O)CCCCC2)cc1 (centres unmarked) [Venlafaxine] | trend towards a statistically significant decline

Now from value to molecule:

Row | Change of parent compound or metabolite serum concentration in pregnancy (in words) | Compound
4 | decline | CNCCC(Oc1ccc(C(F)(F)F)cc1)c1ccccc1 (centres unmarked) [Fluoxetine]
5 | remain largely unchanged | NCCC(Oc1ccc(C(F)(F)F)cc1)c1ccccc1 (centres unmarked) [Norfluoxetine]
6 | increasing levels | N[C@H]1CC[C@@H](c2ccc(Cl)c(Cl)c2)c2ccccc21 [Desmethylsertraline]

Same assay, conditions: baseline to third trimester (gestational week 34)

Row | Compound | Change from baseline conc., Estimate (parent compound or metabolite) | Parent compound / metabolite ratio (PMR), change from baseline, estimate [%]
7 | CN[C@H]1CC[C@@H](c2ccc(Cl)c(Cl)c2)c2ccccc21 [Sertraline] | +83% | -20
8 | CN(C)CC(c1ccc(O)cc1)C1(O)CCCCC1 (centres unmarked) [O-desmethylvenlafaxine] | -13% | 
9 | COc1ccc(C(CN(C)C)C2(O)CCCCC2)cc1 (centres unmarked) [Venlafaxine] | -40% | 

Second part, the molecule after the results:

Row | Change from baseline conc., Estimate (parent compound or metabolite) | Parent compound / metabolite ratio (PMR), change from baseline, estimate [%] | Compound
10 | -33% |  | CNCCCC1(c2ccc(F)cc2)OCc2cc(C#N)ccc21 (centres unmarked) [Desmethylcitalopram]
11 | -31% | -36 | CNCCC(Oc1ccc(C(F)(F)F)cc1)c1ccccc1 (centres unmarked) [Fluoxetine]
12 | 0% |  | NCCC(Oc1ccc(C(F)(F)F)cc1)c1ccccc1 (centres unmarked) [Norfluoxetine]
13 | -39% | -13 | CN(C)CCCC1(c2ccc(F)cc2)OCc2cc(C#N)ccc21 (centres unmarked) [Citalopram]
14 | +120% |  | N[C@H]1CC[C@@H](c2ccc(Cl)c(Cl)c2)c2ccccc21 [Desmethylsertraline]

Same assay, conditions: day 0 (non-pregnant); only analyses with metabolite data; dose-adjusted to DDD

Row | Compound | Baseline conc., Estimate (parent compound or metabolite) [ng/mL]
15 | CN[C@H]1CC[C@@H](c2ccc(Cl)c(Cl)c2)c2ccccc21 [Sertraline] | 8.6
16 | CN(C)CC(c1ccc(O)cc1)C1(O)CCCCC1 (centres unmarked) [O-desmethylvenlafaxine] | 91.5
17 | COc1ccc(C(CN(C)C)C2(O)CCCCC2)cc1 (centres unmarked) [Venlafaxine] | 35.8

Further lines, results first:

Row | Baseline conc., Estimate (parent compound or metabolite) [ng/mL] | Compound
18 | 12.6 | CNCCCC1(c2ccc(F)cc2)OCc2cc(C#N)ccc21 (centres unmarked) [Desmethylcitalopram]
19 | 77.7 | CNCCC(Oc1ccc(C(F)(F)F)cc1)c1ccccc1 (centres unmarked) [Fluoxetine]
20 | 83.7 | NCCC(Oc1ccc(C(F)(F)F)cc1)c1ccccc1 (centres unmarked) [Norfluoxetine]
21 | 32.3 | CN(C)CCCC1(c2ccc(F)cc2)OCc2cc(C#N)ccc21 (centres unmarked) [Citalopram]
22 | 18.4 | N[C@H]1CC[C@@H](c2ccc(Cl)c(Cl)c2)c2ccccc21 [Desmethylsertraline]

Same assay, conditions: day 0 (non-pregnant); ratio

Row | Compound | Parent compound / metabolite ratio (PMR), baseline estimate
23 | CN[C@H]1CC[C@@H](c2ccc(Cl)c(Cl)c2)c2ccccc21 [Sertraline] | 0.5
24 | CNCCC(Oc1ccc(C(F)(F)F)cc1)c1ccccc1 (centres unmarked) [Fluoxetine] | 1.0
25 | CN(C)CCCC1(c2ccc(F)cc2)OCc2cc(C#N)ccc21 (centres unmarked) [Citalopram] | 2.6

Same assay, conditions: gestational week 34; ratio

Row | Compound | Parent compound / metabolite ratio (PMR), third trimester estimate
26 | CN[C@H]1CC[C@@H](c2ccc(Cl)c(Cl)c2)c2ccccc21 [Sertraline] | 0.4
27 | CNCCC(Oc1ccc(C(F)(F)F)cc1)c1ccccc1 (centres unmarked) [Fluoxetine] | 0.6
28 | CN(C)CCCC1(c2ccc(F)cc2)OCc2cc(C#N)ccc21 (centres unmarked) [Citalopram] | 2.3

Same assay, conditions: loge-transformed parent compound/metabolite ratio; baseline

Row | Compound | Loge PMR, Intercept estimate
29 | CN[C@H]1CC[C@@H](c2ccc(Cl)c(Cl)c2)c2ccccc21 [Sertraline] | -0.764
30 | COc1ccc(C(CN(C)C)C2(O)CCCCC2)cc1 (centres unmarked) [Venlafaxine] | -0.927

Next, values leading:

Row | Loge PMR, Intercept estimate | Compound
31 | -0.045 | CNCCC(Oc1ccc(C(F)(F)F)cc1)c1ccccc1 (centres unmarked) [Fluoxetine]
32 | 0.973 | CN(C)CCCC1(c2ccc(F)cc2)OCc2cc(C#N)ccc21 (centres unmarked) [Citalopram]

Same assay, conditions: loge-transformed parent compound/metabolite ratio; per week of pregnancy

Row | Compound | Loge PMR, Change per gestational week estimate
33 | CN[C@H]1CC[C@@H](c2ccc(Cl)c(Cl)c2)c2ccccc21 [Sertraline] | -0.006
34 | COc1ccc(C(CN(C)C)C2(O)CCCCC2)cc1 (centres unmarked) [Venlafaxine] | -0.011

Second part, the molecule after the results:

Row | Loge PMR, Change per gestational week estimate | Compound
35 | -0.013 | CNCCC(Oc1ccc(C(F)(F)F)cc1)c1ccccc1 (centres unmarked) [Fluoxetine]
36 | -0.004 | CN(C)CCCC1(c2ccc(F)cc2)OCc2cc(C#N)ccc21 (centres unmarked) [Citalopram]

Same assay, conditions: loge-transformed; baseline (day 0 of pregnancy); only analyses with metabolite data

Row | Compound | Loge serum concentration, Intercept estimate (parent compound or metabolite)
37 | CN[C@H]1CC[C@@H](c2ccc(Cl)c(Cl)c2)c2ccccc21 [Sertraline] | 2.147
38 | CN(C)CC(c1ccc(O)cc1)C1(O)CCCCC1 (centres unmarked) [O-desmethylvenlafaxine] | 4.516
39 | COc1ccc(C(CN(C)C)C2(O)CCCCC2)cc1 (centres unmarked) [Venlafaxine] | 3.577

Other lines, results leading:

Row | Loge serum concentration, Intercept estimate (parent compound or metabolite) | Compound
40 | 2.534 | CNCCCC1(c2ccc(F)cc2)OCc2cc(C#N)ccc21 (centres unmarked) [Desmethylcitalopram]
41 | 4.353 | CNCCC(Oc1ccc(C(F)(F)F)cc1)c1ccccc1 (centres unmarked) [Fluoxetine]
42 | 4.427 | NCCC(Oc1ccc(C(F)(F)F)cc1)c1ccccc1 (centres unmarked) [Norfluoxetine]
43 | 3.475 | CN(C)CCCC1(c2ccc(F)cc2)OCc2cc(C#N)ccc21 (centres unmarked) [Citalopram]
44 | 2.914 | N[C@H]1CC[C@@H](c2ccc(Cl)c(Cl)c2)c2ccccc21 [Desmethylsertraline]

Same assay, conditions: loge-transformed; per week of pregnancy

Row | Compound | Loge serum concentration, Change per gestational week estimate (parent compound or metabolite)
45 | CN[C@H]1CC[C@@H](c2ccc(Cl)c(Cl)c2)c2ccccc21 [Sertraline] | 0.018
46 | CN(C)CC(c1ccc(O)cc1)C1(O)CCCCC1 (centres unmarked) [O-desmethylvenlafaxine] | -0.004
47 | COc1ccc(C(CN(C)C)C2(O)CCCCC2)cc1 (centres unmarked) [Venlafaxine] | -0.015

Now from value to molecule:

Row | Loge serum concentration, Change per gestational week estimate (parent compound or metabolite) | Compound
48 | -0.012 | CNCCCC1(c2ccc(F)cc2)OCc2cc(C#N)ccc21 (centres unmarked) [Desmethylcitalopram]
49 | -0.011 | CNCCC(Oc1ccc(C(F)(F)F)cc1)c1ccccc1 (centres unmarked) [Fluoxetine]
50 | 0.000 | NCCC(Oc1ccc(C(F)(F)F)cc1)c1ccccc1 (centres unmarked) [Norfluoxetine]
51 | -0.015 | CN(C)CCCC1(c2ccc(F)cc2)OCc2cc(C#N)ccc21 (centres unmarked) [Citalopram]
52 | 0.023 | N[C@H]1CC[C@@H](c2ccc(Cl)c(Cl)c2)c2ccccc21 [Desmethylsertraline]

Same assay, conditions: third trimester vs baseline

Row | Compound | Change of parent compound / metabolite ratio in pregnancy (in words)
53 | CN(C)CCCC1(c2ccc(F)cc2)OCc2cc(C#N)ccc21 (centres unmarked) [Citalopram] | did not reach statistical significance

Same assay, conditions: value printed as size of the decline

Row | Compound | Parent compound / metabolite ratio in mid third trimester lower than baseline [%]
54 | CN[C@H]1CC[C@@H](c2ccc(Cl)c(Cl)c2)c2ccccc21 [Sertraline] | 20
55 | CNCCC(Oc1ccc(C(F)(F)F)cc1)c1ccccc1 (centres unmarked) [Fluoxetine] | 36

Experiment: Dose-adjusted serum antidepressant concentrations across pregnancy compared to the women's own baseline (routine TDM, LC-MS, linear mixed model)
Format: in vivo, human
Conditions: dose-adjusted; fluoxetine and venlafaxine = active moiety
Excerpt: After obtaining approval from the Regional Committee for Medical and Health Research Ethics in Mid Norway, the Norwegian Centre for Research Data (Data Protection Official), the Norwegian Directorate of Health and the Medical Birth Registry of Norway (MBRN) publication council, serum concentration data for antidepressants were collected from the two largest TDM services for psychotropic drugs in Norway (i.e. Department of Clinical Pharmacology at St. Olav University Hospital in Trondheim, and Center for Psychopharmacology at Diakonhjemmet Hospital in Oslo). […] The antidepressant TDM data contain serum concentration measurements taken in a naturalistic setting from psychiatry inpatients and outpatients. In addition to measured serum concentrations, the databases contain information obtained from the requisition forms, such as the prescribed antidepressant dose, time of last drug intake, time of blood sampling, and types and doses of concomitant drugs.
First, a combined laboratory TDM file was created, containing all serum concentration measurements (for any drug) in the period October 1999 –December 2011 for all women of reproductive age (i.e. born 1950–2000). […] Using the unique 11-digit identification number assigned to all individuals living in Norway, the MBRN could identify all pregnant women in the TDM data set. […] For the current study we retrieved the following information: the personal identification number, the drug analysed, the measured drug serum concentration, time of last dose, time of sampling, drug dose, concomitant drug use, other clinical information, name of the responsible physician, gestational week at the time of sampling (calculated from the sampling date and the pregnancy onset date as determined by obstetric ultrasound if available, or by last menstruation), and date of delivery.
If the requisition form lacked information on drug dose the authors contacted the responsible physician, who attempted to obtain this information from the medical record. If we were unable to retrieve this information, the analysis was excluded.
Having identified the pregnant women and their individual pregnancy periods in the extracted data file, we used the original TDM databases to retrieve serum concentration measurements before and after pregnancy from the same women, to serve as baseline observations for each of the included subjects. […] These analyses were not used in the statistical model, only for visual comparison. The remaining 420 analyses were used for the statistical comparisons.
Since multiple measurements were available from the same patient a linear mixed model was used. […] Baseline measurements were set to gestational week 0 in the model. Then, the effect of gestational week on concentration compared to baseline could be estimated for each drug.
Data are presented as means with 95% confidence intervals.

Row | Compound | Change of serum concentration in pregnancy compared to baseline (in words)
56 | CN[C@H]1CC[C@@H](c2ccc(Cl)c(Cl)c2)c2ccccc21 [Sertraline] | statistically significant increase
57 | CNCCC(Oc1ccc(C(F)(F)F)cc1)c1ccccc1 (centres unmarked) [Fluoxetine] | did not change significantly; also recorded: not statistically significant; also recorded: remain largely unchanged; also recorded: no major decline
58 | CN(C)CCCC1(c2ccc(F)cc2)OCc2cc(C#N)ccc21 (centres unmarked) [Citalopram] | remain largely unchanged
59 | COc1ccc(C(CN(C)C)C2(O)CCCCC2)cc1 (centres unmarked) [Venlafaxine] | remain largely unchanged

Same assay, conditions: dose-adjusted; fluoxetine and venlafaxine = active moiety; listed as venlafaxine

Row | Compound | Change of serum concentration in pregnancy compared to baseline (in words)
60 | COc1ccc(C(CN(C)C)C2(O)CCCCC2)cc1 (centres unmarked) [Venlafaxine] | did not change significantly; also recorded: not statistically significant

Same assay, conditions: drop to about this share of pre-pregnancy levels

Row | Compound | Serum concentration in pregnancy as share of pre-pregnancy levels
61 | COCCCC/C(=N\OCCN)c1ccc(C(F)(F)F)cc1 [Fluvoxamine] | about 50%

Same assay, conditions: mid third trimester (gestational week 34) vs baseline; value given as size of the reduction

Row | Compound | Serum concentration in third trimester lower than baseline (reduction) [%]
62 | CN(C)CCCC1(c2ccc(F)cc2)OCc2cc(C#N)ccc21 (centres unmarked) [Citalopram] | 24
63 | COCCCC/C(=N\OCCN)c1ccc(C(F)(F)F)cc1 [Fluvoxamine] | 56

Experiment: not given
Conditions: 11 pregnancies; ref Heikkinen et al. [13]; cited from earlier work

Row | Compound | Third trimester concentrations lower than baseline values [%]
64 | CN(C)CCCC1(c2ccc(F)cc2)OCc2cc(C#N)ccc21 (centres unmarked) [Citalopram] | 42

Same assay, conditions: case report; ref Klier et al. [16]; cited from earlier work

Row | Compound | Reduction in plasma levels in pregnancy compared to baseline
65 | COc1ccc(C(CN(C)C)C2(O)CCCCC2)cc1 (centres unmarked) [Venlafaxine] | more than 50%

Same assay, conditions: eight and six pregnancies; cited from earlier work

Row | Compound | Change of concentrations in pregnancy in previous studies (in words)
66 | CN[C@H]1CC[C@@H](c2ccc(Cl)c(Cl)c2)c2ccccc21 [Sertraline] | variable/non-significant observations

Same assay, conditions: fluoxetine plus norfluoxetine; 11 pregnancies; ref Heikkinen et al.; cited from earlier work

Row | Compound | Third trimester concentrations of the active moiety lower than baseline [%]
67 | CNCCC(Oc1ccc(C(F)(F)F)cc1)c1ccccc1 (centres unmarked) [Fluoxetine] | 32

Same assay, conditions: in vivo; cited from earlier work

Row | Compound | Enantiomer concentration change in pregnancy, chiral analysis (in words)
68 | CNCC[C@H](Oc1ccc(C(F)(F)F)cc1)c1ccccc1 [S-fluoxetine] | declined more than R-fluoxetine

Same assay, conditions: prospective study of seven pregnancies; cited from earlier work

Row | Compound | Change of metabolite levels in pregnancy (in words)
69 | CN(C)CC(c1ccc(O)cc1)C1(O)CCCCC1 (centres unmarked) [O-desmethylvenlafaxine] | no change

Same assay, conditions: prospective study of seven pregnancies; ref ter Horst et al. [24]; cited from earlier work

Row | Compound | Reduction in levels in pregnancy [%]
70 | COc1ccc(C(CN(C)C)C2(O)CCCCC2)cc1 (centres unmarked) [Venlafaxine] | 13

Same assay, conditions: two pregnancies; ref Sit et al. [19]; cited from earlier work

Row | Compound | Third trimester concentrations lower than baseline [%]
71 | CN(C)CCCC1(c2ccc(F)cc2)OCc2cc(C#N)ccc21 (centres unmarked) [Citalopram] | 26
